Earlier results, collected in patent US10792281B2 (priority 2014, dated 2020).
Where two headings read alike, the source gives them in different places.

Tests used:
[1] = system: nuclear factor kappa-B (NF-kB) and activator protein-1 (AP-1) activity
[2] = not given; remark: listed apart in the source
[3] = human, in vivo
[4] = system: human rhinovirus (HRV)
[5] = in vivo

Clc1ccc2c(c1)CCc1cccnc1C2=C1CCNCC1 [Desloratadine, desloratadine]
half-life (in vivo): 27 h
half-life (slow metabolizers): > 50 h

CN(C)CCOC(c1ccccc1)c1ccccc1 [Diphenhydramine, diphenhydramine]
effect on AP-1 and NF-kB activity / RANTES production [1]: ineffective

O=C(O)COCCN1CCN([C@H](c2ccccc2)c2ccc(Cl)cc2)CC1 [levocetirizine]
peak concentration ([2]; repeated 5 mg once daily oral dose): 308 ng/mL
peak concentration ([2]; single 5 mg oral dose): 270 ng/mL
doses that can be safely administered [3]: up to 30 mg/day
HRV-induced ICAM-1, cytokine expression, and viral replication ([4]; airway epithelial cells from both the nose and lung): inhibit
decrease of viral titers ([4]; in vitro, e.g. rhinovirus): 2 log

CN(c1nccc(=O)[nH]1)C1CCN(c2nc3ccccc3n2Cc2ccc(F)cc2)CC1 [mizolastine]
bioavailability (in vivo): high

CC(C)(O)c1ccccc1CC[C@@H](SCC1(CC(=O)O)CC1)c1cccc(/C=C/c2ccc3ccc(Cl)cc3n2)c1 [montelukast]
time to peak plasma concentration [5]: 3 to 4 h
effect of food on oral bioavailability and Cmax ([5]; po): not affected by a standard meal
AUC range ([5]; po, 10 mg): 1521 to 4595 ng/h/mL
mean AUC ([5]; po, 10 mg): 2689 ng/h/mL
doses without clinically relevant side effects [3]: up to 200 mg/day
drug interactions ([3]; po): no drug interactions
